Results on four molecules are retold here after PMC10454728, “A Comparative Study on the Lysosomal Cation Channel TMEM175 Using Automated Whole-Cell Patch-Clamp, Lysosomal Patch-Clamp, and Solid Supported Membrane-Based Electrophysiology: Functional Characterization and High-Throughput Screening Assay Development” (International Journal of Molecular Sciences, 2023).

For assay [1], the target named is T1, TMEM175 (Homo sapiens, UniProt Q9BSA9).
T1 sequence (Q9BSA9 1-504): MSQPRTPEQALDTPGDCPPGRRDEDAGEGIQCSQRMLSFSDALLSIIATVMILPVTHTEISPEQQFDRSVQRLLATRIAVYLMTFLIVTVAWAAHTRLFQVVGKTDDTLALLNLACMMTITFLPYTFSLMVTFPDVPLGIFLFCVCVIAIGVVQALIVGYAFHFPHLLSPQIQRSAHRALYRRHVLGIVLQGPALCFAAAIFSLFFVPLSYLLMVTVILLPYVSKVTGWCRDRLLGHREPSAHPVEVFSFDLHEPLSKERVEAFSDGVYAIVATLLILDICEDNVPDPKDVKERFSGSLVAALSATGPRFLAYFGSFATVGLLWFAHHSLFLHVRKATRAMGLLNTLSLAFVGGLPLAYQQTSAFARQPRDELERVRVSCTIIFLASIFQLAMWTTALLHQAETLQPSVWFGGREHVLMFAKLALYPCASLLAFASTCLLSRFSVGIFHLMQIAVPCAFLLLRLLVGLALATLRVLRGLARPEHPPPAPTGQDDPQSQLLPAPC
As to the kind of experiment: SSME K+ flux on TMEM175 lysosomes (SURFE2R N1): pH, pH gradient, intra-lysosomal application.
Description: A solution exchange of 50 mM Na^+ against 50 mM K^+ was used to stimulate TMEM175. Datasets for each pH were measured on different sensors. […] Average peak currents and SEM, recorded from N = 5 sensors, are shown. Imax was fixed in the subsequent fitting with the equation I = Imax − (Imax − Imin)/(1 + (c/EC50)^n). […] Both datasets—symmetrical pH 7.6 (green) and pH gradient (blue) conditions—were recorded on the same sensor, with N = 5 sensors in total. […] Currents in the presence and the absence of a pH gradient were recorded with different sensors. Each sensor was used for four measurements in the following sequence: in the absence of compound, in the presence of 100 nM compound, in the presence of 10 µM compound, and in the absence of compound (wash-out). Datasets were normalized to the peak current recorded in the absence of compound before averaging. […] Sensors were prepared with TMEM175 lysosomes that were pre-loaded via 1:10 dilution in zinc containing non-activating solution, followed by 10 pulses of sonication as described in the Methods section (Section 4.2.5). […] The three different experimental conditions shown in one graph were applied on the same sensor. Average peak currents and SD from N = 4 sensors are shown, and no normalization was applied.
To test whether the pH is a relevant parameter affecting the efficacy of compounds, we tested the effect of compounds on TMEM175 currents under different pH conditions using the SURFE^2R N1 (Figure 9B–D).
To examine this, we conducted SSME experiments utilizing lysosomes that were pre-loaded with varying concentrations of zinc (Figure 9E). This enabled us to investigate the effects of zinc on TMEM175 activity when it interacts with the lysosomal side of TMEM175, closely simulating the conditions observed in whole-cell APC experiments (Figure 7E). […]
Datasets recorded with the SURFE^2R N1 are usually obtained with the same sensor, i.e., all concentration-dependent datapoints are obtained by sequential measurements. […]

The target of assay [2] is T1, TMEM175. Put plainly: SSME K+ flux compound assay on purified lysosomes overexpressing TMEM175 (SURFE2R 96SE). The class given is biochemical.
For assay [3], the system named is control lysosomes expressing endogenous TMEM175. Put plainly: SSME off-target compound effects on control lysosomes (SURFE2R 96SE). The class given is biochemical, human. From the text: ; (A) Dose-response curves for SC-79; (B) Dose-response curves for cluster 1 compounds showing similar effects with all three technologies; (C) Dose-response curves for cluster 2 compounds showing no activity in LPC, but higher activity in APC; (D) Dose-response curves for cluster 3 compounds showing high activity in LPC, but lower activity in APC; For all assay technologies, datapoints were normalized to the current recorded before compound addition and averaged across at least N = 3 individual experiments. For clarity reasons, the SEM is not shown; the average relative SEM after averaging datapoints recorded with two highest compound concentrations is 35.6% for LPC data and 2.9% for SSME data. The APC data were acquired using a voltage application protocol distinct from the one depicted in Figure 7B, as described in the Methods section. Datasets were not corrected for artifacts (as observed in SSME) or off-target compound effects. For SSME data, we indicate the difference in the peak current when applying the four highest concentrations of a compound to control lysosomes (to assess off-target effects) compared to the current recorded with TMEM175 lysosomes prior to compound addition. […] Considerable off-target compound effects are observed when the given percentage approaches the percentage of enhancement recorded with the TMEM175 sample at the given compound concentration. […] . When an EC50 value was determined from the fit, it is highlighted by a vertical dotted line. […]
We also investigated the effect of the eight test compounds on the artifact currents recorded with control lysosomes using the SURFE^2R 96SE.
Artifact currents are typically in the range of −1 nA, while TMEM175 sample currents are +4 nA (Figure 1K). […] This corresponds to 3% to 30% of the current recorded with the TMEM175 sample in the absence of the compound. […]
a. For each single well, we performed an in-well normalization: the artifact corrected peak current obtained using a given condition is devided by the artifact corrected reference peak current recorded within the same well. b. […]

For the molecule `Nc1ccncc1` [4-AP, 4-aminopyridine], the “Effect of 4-AP, SSME (SURFE2R N1)” value on TMEM175 [1] (pH 4.0 (no TMEM175 activity at this pH)) is “no effect”.
As a reminder, the EC50 is the concentration at which the effect is half-maximal. Regarding `CCOC(=O)C1=C(N)Oc2ccc(Cl)cc2C1C(C#N)C(=O)OCC` (centres unmarked) [SC-79], on TMEM175 [2] (50 mM K+ jump, not corrected for artifacts or off-target effects), the midpoint of the response, the EC50, lay at 2.9 ± 2.3 µM.
By IC50 is commonly meant the midpoint of a concentration-inhibition curve. `[Cl-].[Cl-].[Zn+2]` [Zn, ZnCl2]: the “Effect at 50 µM, SSME” value on TMEM175 [1] (50 µM zinc, lysosomal side (similar to external application)) is given as “did not observe any effect”. On TMEM175 [1] (read-out: IC50, intra-lysosomal application, SSME (SURFE2R N1), lysosomes pre-loaded with zinc, zinc only inside), the IC50 is 700 ± 300 µM. For the same molecule, the “Off-target effect of zinc on control lysosomes (SURFE2R 96SE)” value in assay [3] (in-plate control, Figure S5) is reported as “small off-target inhibition”.
On to `CCCCC1(C2CCCC2)Cc2cc(OCCCC(=O)O)c(Cl)c(Cl)c2C1=O` (centres unmarked) [DCPIB], for which the “Effect of K+ concentration (driving force) on apparent EC50” value on TMEM175 [2] (2, 5, 10, 50 mM K+, 3, 10, 30 µM DCPIB) is “not affected”. Besides, the “Off-target effect of DCPIB on control lysosomes (SURFE2R 96SE)” value is “did not have an effect” in assay [3] (20 µM and below); “off-target inhibition” in assay [3] (60 µM DCPIB, Figure S5).
